The record followed here is patent US9187472B2 (AbbVie Inc., priority 2012, dated 2015).

In one assay the target is NAMPT (Homo sapiens, UniProt P43490). The assay can be described thus: TR-FRET Binding Assay of NAMPT with PRPP. The note with it: with 200 μM PRPP and 2.5 mM ATP; 2 nM NAMPT, 2 nM probe, 16 hours equilibration. A digest of the protocol: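 Substrate-containing variant: 200 μM PRPP plus 2.5 mM ATP are added to 2 nM NAMPT and 2 nM probe, with a 16-hour incubation ahead of TR-FRET reading.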
(In general: In TR-FRET formats the signal depends on donor and acceptor labels being close together.)

For a further assay, the system named is PC3 cells. Description: NAMPT Cell Proliferation Assay. The note with it: Homo sapiens, PC-3, 120 h, 5 days incubation, cell viability by Cell Titer Glo. Type of assay: cell-based. A digest of the protocol:
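PC3 cells were plated at 500 cells/well in RPMI with 10% heat-inactivated FBS, left to attach overnight, then given compounds in 10-fold dilutions from 10 μM to 1×10^−5 μM. After 5 days at 37° C and 5% CO2, viability was read by luminescence and IC50s came from sigmoidal fits of percent inhibition.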
(In general: Cellular ATP, detected with luciferase, serves as a proxy for viable cell number.)

Assay [1] deals with NAMPT (human, recombinant, C-terminally His-tagged) (Homo sapiens, UniProt P43490). Description: Time-Resolved Fluorescence Resonance Energy Transfer (TR-FRET) Binding Assay of NAMPT. The note with it: without substrates; 6.8 nM NAMPT, 200 nM probe, 3 hours equilibration. A digest of the protocol:
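In a displacement format, the nicotinamide-site tracer at 200 nM competed with test compound for 6.8 nM enzyme detected via 1 nM terbium anti-His antibody; incubation lasted 3 hours at room temperature in 50 mM HEPES pH 7.5, 100 mM NaCl. Normalized 520/495 nm emission ratios gave IC50 values.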

Chain of NAMPT (P43490 whole entry): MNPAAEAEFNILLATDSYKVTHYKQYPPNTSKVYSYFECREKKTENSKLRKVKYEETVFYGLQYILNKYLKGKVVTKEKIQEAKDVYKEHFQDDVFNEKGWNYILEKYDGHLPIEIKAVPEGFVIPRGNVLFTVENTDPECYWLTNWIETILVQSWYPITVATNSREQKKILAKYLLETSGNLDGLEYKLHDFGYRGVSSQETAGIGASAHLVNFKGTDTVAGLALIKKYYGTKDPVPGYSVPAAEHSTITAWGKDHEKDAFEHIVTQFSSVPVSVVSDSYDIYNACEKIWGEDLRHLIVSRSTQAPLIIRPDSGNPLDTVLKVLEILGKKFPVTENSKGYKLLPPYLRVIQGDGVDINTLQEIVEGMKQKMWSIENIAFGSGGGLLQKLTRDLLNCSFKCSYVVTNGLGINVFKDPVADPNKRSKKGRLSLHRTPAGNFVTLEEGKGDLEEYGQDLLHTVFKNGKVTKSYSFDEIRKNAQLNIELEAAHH
Chain of NAMPT (human, recombinant, C-terminally His-tagged) (P43490 whole entry): as above

Regarding `O=C(NCc1ccn2ccnc2c1)c1ccc(C2CCN(C(=O)c3ccco3)C2)cc1` (stereo not drawn) [Example 590, 4-[1-(furan-2-ylcarbonyl)pyrrolidin-3-yl]-N-(imidazo[1,2-a]pyridin-7-ylmethyl)benzamide], the values for the IC50 (on NAMPT; with PC3 cells; in assay [1]) were 0.000734 µM, 0.189 µM and 0.666 µM, respectively.
For `CC(C)(C)OC(=O)N1CC=C(c2ccc(NC(=O)Nc3ccc4nccn4c3)cc2)CC1` [Example 25, tert-butyl 4-{4-[(imidazo[1,2-a]pyridin-6-ylcarbamoyl)amino]phenyl}-3,6-dihydropyridine-1(2H)-carboxylate], the values for the IC50 (on NAMPT; in the assay on PC3 cells; in assay [1]) were 0.000714 µM, 0.146 µM and 0.508 µM, respectively.
On to `COc1cccc(C(=O)N2CCC(c3ccc(C(=O)NCc4ccn5ccnc5c4)cc3)C2)c1` (stereo not drawn) [Example 604, N-(imidazo[1,2-a]pyridin-7-ylmethyl)-4-[1-(3-methoxybenzoyl)pyrrolidin-3-yl]benzamide], for which the IC50 at NAMPT came out at 0.000843 µM; in the assay with PC3 cells, 0.0101 µM; in assay [1], 0.151 µM.
Regarding `CC(C)(O)Cn1cc(-c2ccc(C(=O)NCc3ccc4nccn4c3)s2)cn1` [Example 176, 5-[1-(2-hydroxy-2-methylpropyl)-1H-pyrazol-4-yl]-N-(imidazo[1,2-a]pyridin-6-ylmethyl)thiophene-2-carboxamide], the values for the IC50 (on NAMPT; in the assay with PC3 cells; in assay [1]) were 0.000414 µM, 0.00181 µM and 0.0606 µM, respectively.
On to `CC(C)Cn1cc(-c2ccc(C(=O)NCc3cn4ccnc4cn3)o2)cn1` [Example 819, N-(imidazo[1,2-a]pyrazin-6-ylmethyl)-5-[1-(2-methylpropyl)-1H-pyrazol-4-yl]furan-2-carboxamide], for which the values for the IC50 (on NAMPT; with PC3 cells; in assay [1]) were 0.000624 µM, 0.013 µM and 0.0199 µM, respectively.
Turning to `COCC(C)C(=O)Nc1ccc(NC(=O)Nc2ccc3nccn3c2)cc1` (stereo not drawn) [Example 43], the IC50 at NAMPT was determined as 0.000169 µM; in the assay with PC3 cells, 7.45 µM; in assay [1], 4.35 µM.
For `COc1cccc(C(=O)N2CCC(c3ccc(C(=O)NCc4ccn5ccnc5c4)s3)C2)c1` (stereo not drawn) [Example 759, N-(imidazo[1,2-a]pyridin-7-ylmethyl)-5-[1-(3-methoxybenzoyl)pyrrolidin-3-yl]thiophene-2-carboxamide], in that order: 0.000799 µM, 0.00165 µM and 0.0285 µM.
In the case of `O=C(NCc1ccn2ccnc2c1)c1ccc(OC2CCN(C(=O)[C@H]3CCCO3)CC2)cc1` [Example 418, N-(imidazo[1,2-a]pyridin-7-ylmethyl)-4-({1-[(2R)-tetrahydrofuran-2-ylcarbonyl]piperidin-4-yl}oxy)benzamide], the IC50 on NAMPT was determined as 0.000233 µM; with PC3 cells it was 0.866 µM; in assay [1], 4.75 µM.
Turning to `CC(C)(O)C(=O)N1CC(c2ccc(NC(=O)NCc3ccn4ccnc4c3)cc2)C1` [Example 457, 1-{4-[1-(2-hydroxy-2-methylpropanoyl)azetidin-3-yl]phenyl}-3-(imidazo[1,2-a]pyridin-7-ylmethyl)urea], the IC50 at NAMPT was determined as 0.000487 µM; with PC3 cells, 0.194 µM; in assay [1], 1.14 µM.
In the case of `CC(C)C(=O)NC1(c2ccc(C(=O)NCc3ccn4ccnc4c3)s2)COC1` [Example 324, N-(imidazo[1,2-a]pyridin-7-ylmethyl)-5-{3-[(2-methylpropanoyl)amino]oxetan-3-yl}thiophene-2-carboxamide], the figures for the IC50 (at NAMPT; in the assay on PC3 cells; in assay [1]) were 0.000752 µM, 0.0547 µM and 0.981 µM, respectively.
For `CC1(Cn2cc(-c3ccc(C(=O)NCc4ccc5ncnn5c4)o3)cn2)CCOCC1` [Example 822, 5-{1-[(4-methyltetrahydro-2H-pyran-4-yl)methyl]-1H-pyrazol-4-yl}-N-([1,2,4]triazolo[1,5-a]pyridin-6-ylmethyl)furan-2-carboxamide], the IC50 stood at 0.00346 µM at NAMPT, 0.0711 µM with PC3 cells and 0.104 µM in assay [1].

By IC50 is commonly meant the concentration at which inhibition is half-maximal.
